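Protocol summary: plate cells (96-well), add compound at 5 concentrations, incubate 48 h, interpolate endpoints linearly. Here, GI50 denotes the concentration required for 50% inhibition of growth. TGI denotes the concentration required for complete inhibition of growth.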
Experiments:
Assay in all cases: NCI-60 cell line screen, 48 h
[1] = tested on: OVCAR-4 ovarian
[2] = tested on: MCF7 breast
[3] = tested on: A498 renal
[4] = tested on: SR leukemia
[5] = tested on: UACC-62 melanoma
[6] = tested on: MDA-MB-435

Q: With `COc1ccc2nc3cccc([N+](=O)[O-])c3c(NCCCCCC(=O)O)c2c1` as the compound, how does the GI50 [1] read?
A: 0.393 µM

Q: And the TGI [1]?
A: 1.72 µM

Q: And the GI50 [2]?
A: 0.0174 µM

Q: And the TGI [2]?
A: 0.596 µM

Q: What about the GI50 [3] of the same compound?
A: 1.87 µM

Q: What about the TGI [3] of the same compound?
A: 4.28 µM

Q: And the GI50 [4]?
A: 0.0395 µM

Q: And the GI50 [5]?
A: 0.183 µM

Q: What about the TGI [5] of the same compound?
A: 0.465 µM

Q: What does the source list for `COc1cc(NC(C)CCCNC2CN3CCC2CC3)c2ncccc2c1` (configuration not stated)?
A: GI50 [6]: 8.71 µM; TGI [6]: 22 µM; GI50 [1]: 1.84 µM; TGI [1]: 6.51 µM; GI50 [2]: 1.64 µM; TGI [2]: 3.58 µM; GI50 [3]: 2.05 µM; TGI [3]: 16.8 µM; GI50 [5]: 3.2 µM; TGI [5]: 10.5 µM

Q: Which results are given for `COc1cnc2c(c1)C(=O)c1c-2n(CCCn2ccnc2)c(=O)c2cc(F)ccc12`?
A: GI50 [6]: 0.121 µM; TGI [6]: 0.832 µM; GI50 [1]: 0.118 µM; TGI [1]: 1.63 µM; GI50 [3]: 0.0508 µM; TGI [3]: 0.218 µM; GI50 [4]: < 0.01 µM; TGI [4]: 0.76 µM

Q: Which GI50 [6] does the source give for `COc1ccc(-c2c[nH]c(C(=O)O)c2-c2cc(OC)c(OC)c(OC)c2)cc1` here?
A: 1.6 µM

Q: And the TGI [6]?
A: 4.19 µM

Q: What about the GI50 [1] of the same compound?
A: 88.8 µM

Q: And the TGI [1]?
A: > 100 µM

Q: What about the GI50 [2] of the same compound?
A: 3.89 µM

Q: And the TGI [2]?
A: > 100 µM

Q: And the GI50 [3]?
A: 1.56 µM

Q: And the TGI [3]?
A: 6.67 µM

Q: And the GI50 [4]?
A: 2.92 µM

Q: And the TGI [4]?
A: > 100 µM

Q: What about the GI50 [5] of the same compound?
A: 4.13 µM

Q: What about the TGI [5] of the same compound?
A: > 100 µM

Q: What does the source list for `COc1ccc(/C(COc2ccc3c(=O)cc(-c4ccccc4)oc3c2)=N\O)cc1`?
A: GI50 [6]: 6.77 µM; TGI [6]: 23.9 µM; GI50 [1]: 21.5 µM; TGI [1]: > 41.5 µM; GI50 [2]: 9.68 µM; TGI [2]: > 32.2 µM; GI50 [4]: 6.61 µM; TGI [4]: > 32 µM; GI50 [5]: 10.9 µM; TGI [5]: 31.4 µM

Q: With `COc1cc(/C=C/C(=O)c2cccc(Nc3nc(Nc4ccccc4)nc(Nc4ccccc4)n3)c2)cc(OC)c1OC` as the compound, how does the GI50 [6] read?
A: 7.67 µM

Q: And the TGI [6]?
A: > 73.4 µM

Q: And the GI50 [1]?
A: 33.9 µM

Q: What about the TGI [1] of the same compound?
A: > 100 µM

Q: What about the GI50 [2] of the same compound?
A: 0.588 µM

Q: What about the TGI [2] of the same compound?
A: > 54.1 µM

Q: What about the GI50 [3] of the same compound?
A: 7.47 µM

Q: What about the TGI [3] of the same compound?
A: > 49.9 µM

Q: And the GI50 [5]?
A: 43.8 µM

Q: And the TGI [5]?
A: > 100 µM

Q: How did the GI50 [6] turn out when `FC(F)(F)c1ccc(Nc2nc(-c3c(C(F)(F)F)nc4ccccn34)cs2)cc1` was run?
A: 0.0161 µM

Q: What about the TGI [6] of the same compound?
A: 0.0473 µM

Q: And the GI50 [1]?
A: 1.22 µM

Q: And the TGI [1]?
A: 15.6 µM

Q: And the GI50 [2]?
A: 0.0341 µM

Q: What about the TGI [2] of the same compound?
A: 5.43 µM

Q: And the GI50 [3]?
A: 0.0268 µM

Q: What about the TGI [3] of the same compound?
A: 0.193 µM

Q: And the GI50 [4]?
A: 0.0402 µM

Q: What about the TGI [4] of the same compound?
A: > 39.4 µM

Q: What about the GI50 [5] of the same compound?
A: 0.0385 µM

Q: And the TGI [5]?
A: 3.43 µM

Q: With `COC(=O)C1(C)CCC(c2ccc(C)cc2)=C(CC(=O)O)C1` (configuration not stated) as the compound, how does the TGI [6] read?
A: > 100 µM

Q: And the TGI [1]?
A: > 100 µM

Q: And the TGI [2]?
A: > 100 µM

Q: And the TGI [3]?
A: > 100 µM

Q: What about the TGI [4] of the same compound?
A: > 100 µM

Q: And the TGI [5]?
A: > 100 µM

Q: `C=C1C(=O)O[C@H]2[C@H]1CC/C(COC(=O)NCc1cn(C)c3ccccc13)=C\CC[C@@]1(C)O[C@@H]21` was tested. Which GI50 [6] did it give?
A: 1.28 µM

Q: What about the TGI [6] of the same compound?
A: 3.05 µM

Q: And the GI50 [1]?
A: 2.38 µM

Q: What about the TGI [1] of the same compound?
A: 7.92 µM

Q: And the GI50 [3]?
A: 3.21 µM

Q: And the TGI [3]?
A: 12.1 µM

Q: What about the GI50 [4] of the same compound?
A: 0.395 µM

Q: And the TGI [4]?
A: 4.61 µM

Q: What about the GI50 [5] of the same compound?
A: 1.69 µM

Q: What about the TGI [5] of the same compound?
A: 4.33 µM

Q: Which GI50 [6] does the source give for `COc1ccc(-c2nc(-c3nc4ccc(OC)cc4[nH]3)c3ccccn23)cc1` here?
A: 3.14 µM

Q: And the TGI [6]?
A: > 100 µM

Q: And the GI50 [1]?
A: 4.53 µM

Q: What about the TGI [1] of the same compound?
A: > 100 µM

Q: What about the GI50 [2] of the same compound?
A: 3.4 µM

Q: And the TGI [2]?
A: > 100 µM

Q: And the GI50 [3]?
A: 4.28 µM

Q: What about the TGI [3] of the same compound?
A: > 100 µM

Q: What about the GI50 [5] of the same compound?
A: 4.51 µM

Q: And the TGI [5]?
A: 22 µM
